Test results from PubChem BioAssay AID284 (DTP/NCI, 2004).
Values joined by “and” are separate entries in the source; they are usually repeats but may differ in a detail not shown here. Identical values can stand only once. Inconclusive results and toxic doses are left out.

Test system: BDF1 mice, L1210/MTX-resistant leukemia ip, survival T/C
Test: NCI In Vivo Anticancer Drug Screen. Data for tumor model L1210 Leukemia resistant to Methotrexate; NSC 740 (intraperitoneal) in B6D2F1 (BDF1) mice
Conditions: endpoint: mean survival time, higher = longer survival
Experimental: The antitumor activity of compounds was measured in mice bearing transplantable tumors. Survival or tumor size were measured and the results are expressed as the measurement made in the treated group (T) divided by the measurement made in the vehicle treated control group (C). The tumor model used in this assay is L1210 Leukemia resistant to Methotrexate; NSC 740 (intraperitoneal) in B6D2F1 (BDF1) mice

[1] = dose: 12.5 mg/kg/injection, schedule: Q01DX010 (sc), vehicle: steriod suspending solution
[2] = dose: 25.0 mg/kg/injection, schedule: Q01DX010 (sc), vehicle: steriod suspending solution
[3] = dose: 50.0 mg/kg/injection, schedule: Q01DX010 (sc), vehicle: steriod suspending solution
[4] = dose: 100.0 mg/kg/injection, schedule: Q01DX010 (sc), vehicle: steriod suspending solution
[5] = dose: 20.0 mg/kg/injection, schedule: Q01DX Z (ip), vehicle: carboxymethylcellulose (CMC)
[6] = dose: 25.0 mg/kg/injection, schedule: Q01DX010 (ip), vehicle: saline
[7] = dose: 8.0 mg/kg/injection, schedule: Q01DX010 (ip), vehicle: saline
[8] = dose: 50.0 mg/kg/injection, schedule: Q01DX Z (ip), vehicle: carboxymethylcellulose (CMC)
[9] = dose: 100.0 mg/kg/injection, schedule: Q01DX Z (ip), vehicle: carboxymethylcellulose (CMC)

CC(=O)O[C@]1(C(C)=O)CC[C@H]2[C@@H]3C[C@H](C)C4=CC(=O)C=C[C@]4(C)[C@@]3(F)[C@@H](O)C[C@@]21C
T/C (dose: 0.62 mg/kg/injection, schedule: Q01DX Z (sc), vehicle: steriod suspending solution): 96 % of control
T/C (dose: 1.25 mg/kg/injection, schedule: Q01DX Z (sc), vehicle: steriod suspending solution): 97 % of control
T/C (dose: 2.5 mg/kg/injection, schedule: Q01DX Z (sc), vehicle: steriod suspending solution): 100 % of control
T/C (dose: 5.0 mg/kg/injection, schedule: Q01DX Z (sc), vehicle: steriod suspending solution): 101 % of control
T/C [1]: 101 % of control
T/C [2]: 100 % of control
T/C (dose: 37.5 mg/kg/injection, schedule: Q01DX Z (sc), vehicle: steriod suspending solution): 150 % of control
T/C [3]: 88 % of control
T/C [4]: 88 % of control

C[C@@H]1C[C@H]2CC[C@H](O2)[C@H](C)C(=O)O[C@@H](C)C[C@@H]2CC[C@@H](O2)[C@@H](C)C(=O)O[C@H](C)C[C@H]2CC[C@H](O2)[C@H](C)C(=O)O[C@@H](C)C[C@@H]2CC[C@@H](O2)[C@@H](C)C(=O)O1
T/C (dose: 100.0 mg/kg/injection, schedule: Q01DX Z (ip), vehicle: methylcellulose (MC)): 89 % of control

CCN(CC)CCNc1ccc(C)c2sc3ccccc3c(=O)c12
T/C (dose: 1.6 mg/kg/injection, schedule: Q01DX Z (ip), vehicle: methylcellulose (MC)): 89 % of control and 93 % of control
T/C (dose: 3.2 mg/kg/injection, schedule: Q01DX Z (ip), vehicle: methylcellulose (MC)): 93 % of control
T/C (dose: 6.3 mg/kg/injection, schedule: Q01DX Z (ip), vehicle: methylcellulose (MC)): 93 % of control
T/C [5]: 112 % of control
T/C [6]: 159 % of control
T/C (dose: 40.0 mg/kg/injection, schedule: Q01DX Z (ip), vehicle: carboxymethylcellulose (CMC)): 106 % of control
T/C (dose: 50.0 mg/kg/injection, schedule: Q01DX010 (ip), vehicle: saline): 124 % of control
T/C (dose: 80.0 mg/kg/injection, schedule: Q01DX Z (ip), vehicle: carboxymethylcellulose (CMC)): 113 % of control
T/C (dose: 100.0 mg/kg/injection, schedule: Q01DX010 (ip), vehicle: saline): 213 % of control
T/C (dose: 200.0 mg/kg/injection, schedule: Q01DX010 (ip), vehicle: saline): 86 % of control

O=C(Nc1ccc(C2=NCCN2)cc1)c1ccc(C(=O)Nc2ccc(C3=NCCN3)cc2)cc1
T/C (dose: 4.0 mg/kg/injection, schedule: Q01DX010 (ip), vehicle: other): 194 % of control and 204 % of control
T/C (dose: 8.0 mg/kg/injection, schedule: Q01DX010 (ip), vehicle: other): 244 % of control and 279 % of control
T/C (dose: 10.0 mg/kg/injection, schedule: Q01DX Z (ip), vehicle: methylcellulose (MC)): 124 % of control and 105 % of control
T/C (dose: 16.0 mg/kg/injection, schedule: Q01DX010 (ip), vehicle: other): 218 % of control and 219 % of control
T/C (dose: 20.0 mg/kg/injection, schedule: Q01DX Z (ip), vehicle: methylcellulose (MC)): 120 % of control and 106 % of control
T/C (dose: 32.0 mg/kg/injection, schedule: Q01DX010 (ip), vehicle: other): 231 % of control and 239 % of control
T/C (dose: 40.0 mg/kg/injection, schedule: Q01DX Z (ip), vehicle: methylcellulose (MC)): 117 % of control
T/C (dose: 64.0 mg/kg/injection, schedule: Q01DX010 (ip), vehicle: other): 222 % of control and 242 % of control

O=C(Nc1ccc(C2=NCCN2)cc1)c1ccc(C(=O)Nc2ccc(C3=NCCN3)cc2)c([N+](=O)[O-])c1
T/C (dose: 6.0 mg/kg/injection, schedule: Q01DX010 (ip), vehicle: saline): 259 % of control
T/C (dose: 6.3 mg/kg/injection, schedule: Q01DX Z (ip), vehicle: saline): 122 % of control
T/C [7]: 284 % of control
T/C (dose: 12.0 mg/kg/injection, schedule: Q01DX010 (ip), vehicle: saline): 201 % of control
T/C (dose: 12.5 mg/kg/injection, schedule: Q01DX Z (ip), vehicle: saline): 97 % of control
T/C (dose: 18.0 mg/kg/injection, schedule: Q01DX010 (ip), vehicle: saline): 107 % of control
T/C (dose: 25.0 mg/kg/injection, schedule: Q01DX Z (ip), vehicle: saline): 116 % of control and 96 % of control

O=NN(CCCl)C(=O)NCCCl
T/C (dose: 12.5 mg/kg/injection, schedule: Q01DX010 (ip), vehicle: saline): 113 % of control
T/C [6]: 87 % of control and 91 % of control

C[C@]12C=CC(=O)C=C1CC[C@@H]1[C@@H]2[C@@H](O)C[C@@]2(C)[C@H]1CC[C@]2(O)C(=O)CO
T/C [1]: 88 % of control
T/C [2]: 99 % of control
T/C [3]: 86 % of control
T/C [4]: 90 % of control

Nc1nc(SCc2ccccc2)c2[nH]cnc2n1
T/C (dose: 6.25 mg/kg/injection, schedule: Q01DX Z (ip), vehicle: carboxymethylcellulose (CMC)): 121 % of control
T/C [7]: 105 % of control
T/C (dose: 12.5 mg/kg/injection, schedule: Q01DX Z (ip), vehicle: carboxymethylcellulose (CMC)): 114 % of control
T/C (dose: 16.0 mg/kg/injection, schedule: Q01DX010 (ip), vehicle: saline): 120 % of control
T/C (dose: 25.0 mg/kg/injection, schedule: Q01DX Z (ip), vehicle: carboxymethylcellulose (CMC)): 107 % of control
T/C [8]: 105 % of control
T/C (dose: 62.5 mg/kg/injection, schedule: Q01DX Z (ip), vehicle: carboxymethylcellulose (CMC)): 95 % of control
T/C (dose: 64.0 mg/kg/injection, schedule: Q01DX010 (ip), vehicle: saline): 96 % of control

CCCSc1ncnc2nc[nH]c12
T/C (dose: 0.5 mg/kg/injection, schedule: Q01DX Z (ip), vehicle: other): 103 % of control
T/C (dose: 2.0 mg/kg/injection, schedule: Q01DX Z (ip), vehicle: other): 93 % of control
T/C (dose: 4.0 mg/kg/injection, schedule: Q01DX Z (ip), vehicle: other): 93 % of control
T/C (dose: 31.3 mg/kg/injection, schedule: Q01DX010 (ip), vehicle: saline): 104 % of control
T/C (dose: 62.5 mg/kg/injection, schedule: Q01DX010 (ip), vehicle: saline): 95 % of control
T/C (dose: 87.5 mg/kg/injection, schedule: Q01DX Z (ip), vehicle: other): 100 % of control
T/C (dose: 125.0 mg/kg/injection, schedule: Q01DX010 (ip), vehicle: saline): 90 % of control
T/C (dose: 175.0 mg/kg/injection, schedule: Q01DX Z (ip), vehicle: other): 88 % of control
T/C (dose: 250.0 mg/kg/injection, schedule: Q01DX010 (ip), vehicle: saline): 88 % of control

COS(C)(=O)=O
T/C (dose: 5.0 mg/kg/injection, schedule: Q01DX Z (ip), vehicle: saline): 105 % of control
T/C (dose: 10.0 mg/kg/injection, schedule: Q01DX Z (ip), vehicle: saline): 103 % of control
T/C (dose: 20.0 mg/kg/injection, schedule: Q01DX Z (ip), vehicle: saline): 103 % of control
T/C (dose: 40.0 mg/kg/injection, schedule: Q01DX Z (ip), vehicle: saline): 97 % of control

Cn1c(O)c(N=NC(N)=S)c2ccccc21
T/C [8]: 96 % of control
T/C [9]: 86 % of control

CC1CCOS(=O)O1 (configuration not stated)
T/C (dose: 10.0 mg/kg/injection, schedule: Q01DX010 (ip), vehicle: saline): 100 % of control
T/C (dose: 20.0 mg/kg/injection, schedule: Q01DX010 (ip), vehicle: saline): 100 % of control
T/C (dose: 40.0 mg/kg/injection, schedule: Q01DX010 (ip), vehicle: saline): 90 % of control

CN(C)C(=S)N=Nc1c(O)[nH]c2ccccc12
T/C (dose: 2.5 mg/kg/injection, schedule: Q01DX Z (ip), vehicle: carboxymethylcellulose (CMC)): 110 % of control
T/C (dose: 5.0 mg/kg/injection, schedule: Q01DX Z (ip), vehicle: carboxymethylcellulose (CMC)): 106 % of control
T/C (dose: 10.0 mg/kg/injection, schedule: Q01DX Z (ip), vehicle: carboxymethylcellulose (CMC)): 115 % of control
T/C [5]: 95 % of control
T/C [8]: 124 % of control
T/C [9]: 86 % of control

N[C@@H](Cc1ccc(N(CCCl)CCCl)cc1)C(=O)O
T/C (dose: 0.5 mg/kg/injection, schedule: Q01DX Z (ip), vehicle: carboxymethylcellulose (CMC)): 114 % of control
T/C (dose: 1.0 mg/kg/injection, schedule: Q01DX Z (ip), vehicle: carboxymethylcellulose (CMC)): 100 % of control
T/C (dose: 2.0 mg/kg/injection, schedule: Q01DX Z (ip), vehicle: carboxymethylcellulose (CMC)): 110 % of control
T/C (dose: 3.0 mg/kg/injection, schedule: Q01DX Z (ip), vehicle: carboxymethylcellulose (CMC)): 114 % of control
T/C (dose: 4.0 mg/kg/injection, schedule: Q01DX Z (ip), vehicle: carboxymethylcellulose (CMC)): 107 % of control
T/C (dose: 6.0 mg/kg/injection, schedule: Q01DX Z (ip), vehicle: carboxymethylcellulose (CMC)): 97 % of control
T/C (dose: 8.0 mg/kg/injection, schedule: Q01DX Z (ip), vehicle: carboxymethylcellulose (CMC)): 86 % of control

NC(=O)N(CCCl)N=O
T/C (dose: 0.5 mg/kg/injection, schedule: Q01DX010 (ip), vehicle: saline): 158 % of control
T/C (dose: 4.0 mg/kg/injection, schedule: Q01DX010 (ip), vehicle: saline): 104 % of control
